Experimental data: ChEMBL document CHEMBL1201862, “PubChem BioAssay data set” (2004)
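Step 1: Grow cells in 96-well plates. Step 2: Expose to compound for 48 hours at 5 concentrations. Step 3: Interpolate endpoints linearly; if unreached, use highest concentration. At the GI50, growth is halved.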 Calls of active or inactive are those of the source. Rule as the data show it: active = GI50 up to about 1.1 µM and inactive = higher.

What was measured:
Test in all cases: growth of human tumour cells (NCI), 48 h
DMS-114 = test system: DMS-114
SNB-75 = test system: SNB-75
HL-60 = test system: HL-60
DLD-1 = test system: DLD-1
KM-20L2 = test system: KM-20L2
HOP-18 = test system: HOP-18
KM12 = test system: KM12
UACC-257 = test system: UACC-257
U-251 = test system: U-251
HCC 2998 = test system: HCC 2998
A549 = test system: A549
UO-31 = test system: UO-31
HOP-62 = test system: HOP-62
DMS-273 = test system: DMS-273
CAKI-1 = test system: CAKI-1
LXFL 529 = test system: LXFL 529
COLO 205 = test system: COLO 205
SNB-78 = test system: SNB-78
SN12C = test system: SN12C
OVCAR-4 = test system: OVCAR-4
OVCAR-5 = test system: OVCAR-5
M19-MEL = test system: M19-MEL
NCI-H522 = test system: NCI-H522
SR = test system: SR
SF-295 = test system: SF-295
NCI-H23 = test system: NCI-H23
LOX IMVI = test system: LOX IMVI
HOP-92 = test system: HOP-92
SF-268 = test system: SF-268
M14 = test system: M14
SNB-19 = test system: SNB-19
SK-MEL-2 = test system: SK-MEL-2
OVCAR-3 = test system: OVCAR-3
SF-539 = test system: SF-539
NCI-H460 = test system: NCI-H460
OVCAR-8 = test system: OVCAR-8
EKVX = test system: EKVX
HCT-116 = test system: HCT-116
Malme-3M = test system: Malme-3M
SW-620 = test system: SW-620
786-0 = test system: 786-0
NCI-H226 = test system: NCI-H226
HT-29 = test system: HT-29
UACC-62 = test system: UACC-62
A498 = test system: A498
ACHN = test system: ACHN
SK-OV-3 = test system: SK-OV-3
TK-10 = test system: TK-10
CCRF-CEM = test system: CCRF-CEM
MOLT-4 = test system: MOLT-4
RXF 393 = test system: RXF 393
IGROV-1 = test system: IGROV-1
XF498 = test system: XF498
SK-MEL-28 = test system: SK-MEL-28
K562 = test system: K562
SK-MEL-5 = test system: SK-MEL-5
RPMI-8226 = test system: RPMI-8226
HCT-15 = test system: HCT-15
MCF7 = test system: MCF7
NCI/ADR-RES = test system: NCI/ADR-RES

In the case of `CN(/C(=N\O)c1ccccc1)c1ccccc1`, the GI50 (DMS-114) is reported as 25.6 µM (inactive), the GI50 (SNB-75) is reported as 13.5 µM (inactive) and the GI50 (HL-60) is reported as 19.7 µM (inactive). The GI50 (DLD-1) was 29.4 µM (inactive), the GI50 (KM-20L2) was 17.3 µM (inactive) and the GI50 (HOP-18) was < 0.01 µM (active). The GI50 (KM12) was 36.3 µM (inactive), the GI50 (UACC-257) was 38.6 µM (inactive) and the GI50 (U-251) was 17.2 µM (inactive). For the same compound, the GI50 (HCC 2998) was 25.9 µM (inactive), the GI50 (A549) was 47 µM (inactive) and the GI50 (UO-31) was 25.5 µM (inactive). The GI50 (HOP-62) was 22.9 µM (inactive), the GI50 (DMS-273) was 24.3 µM (inactive) and the GI50 (CAKI-1) was 37.2 µM (inactive). For the same compound, the GI50 (LXFL 529) was 34.8 µM (inactive), the GI50 (COLO 205) was 95.9 µM (inactive) and the GI50 (SNB-78) was 28.4 µM (inactive). The GI50 (SN12C) was 32.1 µM (inactive), the GI50 (OVCAR-4) was 33.7 µM (inactive) and the GI50 (OVCAR-5) was 88.9 µM (inactive). For the same compound, the GI50 (M19-MEL) was 78.2 µM (inactive), the GI50 (NCI-H522) was 18 µM (inactive) and the GI50 (SR) was 25 µM (inactive). For the same compound, the GI50 (SF-295) was 21 µM (inactive), the GI50 (NCI-H23) was 24.4 µM (inactive) and the GI50 (LOX IMVI) was 22.6 µM (inactive). The GI50 (HOP-92) was 5.12 µM (inactive), the GI50 (SF-268) was 28.1 µM (inactive) and the GI50 (M14) was 21.6 µM (inactive). For the same compound, the GI50 (SNB-19) was 27.9 µM (inactive), the GI50 (SK-MEL-2) was 27.8 µM (inactive) and the GI50 (OVCAR-3) was 21.7 µM (inactive). For the same compound, the GI50 (SF-539) was 22.6 µM (inactive), the GI50 (NCI-H460) was 32.5 µM (inactive) and the GI50 (OVCAR-8) was 24.8 µM (inactive). The GI50 (EKVX) was 23.3 µM (inactive), the GI50 (HCT-116) was 46.7 µM (inactive) and the GI50 (Malme-3M) was 39.1 µM (inactive). For the same compound, the GI50 (SW-620) was 32.2 µM (inactive), the GI50 (786-0) was 21.7 µM (inactive) and the GI50 (NCI-H226) was 21.3 µM (inactive). The GI50 (HT-29) was 30.5 µM (inactive).
With `C[C@@H](NC1CCCC[C@H]1O)c1ccccc1` (stereo not given in full) the GI50 (UACC-62) was > 100 µM (inactive), the GI50 (A498) was > 100 µM (inactive) and the GI50 (SNB-75) was 77.6 µM (inactive). The GI50 (HL-60) was > 100 µM (inactive), the GI50 (DLD-1) was > 100 µM (inactive) and the GI50 (KM-20L2) was > 100 µM (inactive). The GI50 (HOP-18) was > 100 µM (inactive), the GI50 (KM12) was > 100 µM (inactive) and the GI50 (UACC-257) was > 100 µM (inactive). For the same compound, the GI50 (U-251) was > 100 µM (inactive), the GI50 (HCC 2998) was > 100 µM (inactive) and the GI50 (A549) was > 100 µM (inactive). The GI50 (ACHN) was > 100 µM (inactive), the GI50 (UO-31) was > 100 µM (inactive) and the GI50 (HOP-62) was > 100 µM (inactive). The GI50 (DMS-273) was > 100 µM (inactive), the GI50 (COLO 205) was > 100 µM (inactive) and the GI50 (SNB-78) was > 100 µM (inactive). The GI50 (SK-OV-3) was > 100 µM (inactive), the GI50 (SN12C) was > 100 µM (inactive) and the GI50 (TK-10) was > 100 µM (inactive). The GI50 (CCRF-CEM) was > 100 µM (inactive), the GI50 (OVCAR-4) was > 100 µM (inactive) and the GI50 (MOLT-4) was > 100 µM (inactive). The GI50 (M19-MEL) was > 100 µM (inactive), the GI50 (NCI-H522) was > 100 µM (inactive) and the GI50 (SF-295) was > 100 µM (inactive). For the same compound, the GI50 (NCI-H23) was > 100 µM (inactive), the GI50 (RXF 393) was > 100 µM (inactive) and the GI50 (LOX IMVI) was > 100 µM (inactive). For the same compound, the GI50 (HOP-92) was > 100 µM (inactive), the GI50 (SF-268) was > 100 µM (inactive) and the GI50 (IGROV-1) was > 100 µM (inactive). For the same compound, the GI50 (M14) was > 100 µM (inactive), the GI50 (SNB-19) was > 100 µM (inactive) and the GI50 (SK-MEL-2) was > 100 µM (inactive). The GI50 (OVCAR-3) was > 100 µM (inactive), the GI50 (SF-539) was > 100 µM (inactive) and the GI50 (XF498) was > 100 µM (inactive). For the same compound, the GI50 (NCI-H460) was > 100 µM (inactive), the GI50 (OVCAR-8) was > 100 µM (inactive) and the GI50 (EKVX) was > 100 µM (inactive). The GI50 (HCT-116) was > 100 µM (inactive), the GI50 (SK-MEL-28) was > 100 µM (inactive) and the GI50 (K562) was > 100 µM (inactive). The GI50 (SK-MEL-5) was > 100 µM (inactive), the GI50 (Malme-3M) was > 100 µM (inactive) and the GI50 (RPMI-8226) was > 100 µM (inactive). The GI50 (SW-620) was > 100 µM (inactive), the GI50 (786-0) was > 100 µM (inactive) and the GI50 (NCI-H226) was > 100 µM (inactive). For the same compound, the GI50 (HCT-15) was over 100 µM and the GI50 (HT-29) was > 100 µM (inactive).
With `CN(C)C(=O)Oc1c(Br)cc(Br)cc1C(=O)OCc1ccccc1` the GI50 (UACC-62) was 15.7 µM (inactive), the GI50 (DMS-114) was 19.1 µM (inactive) and the GI50 (A498) was 23 µM (inactive). For the same compound, the GI50 (SNB-75) was 32 µM (inactive), the GI50 (HL-60) was 21.4 µM (inactive) and the GI50 (DLD-1) was 25.4 µM (inactive). For the same compound, the GI50 (KM-20L2) was 22.8 µM (inactive), the GI50 (HOP-18) was 33.2 µM (inactive) and the GI50 (KM12) was 28.7 µM (inactive). For the same compound, the GI50 (UACC-257) was 26.5 µM (inactive), the GI50 (U-251) was 21.6 µM (inactive) and the GI50 (HCC 2998) was 36.1 µM (inactive). For the same compound, the GI50 (A549) was 28.1 µM (inactive), the GI50 (UO-31) was 20.3 µM (inactive) and the GI50 (HOP-62) was 28.2 µM (inactive). For the same compound, the GI50 (DMS-273) was 17.3 µM (inactive), the GI50 (CAKI-1) was 23.3 µM (inactive) and the GI50 (COLO 205) was 18.3 µM (inactive). The GI50 (SNB-78) was 33.1 µM (inactive), the GI50 (SK-OV-3) was 44.9 µM (inactive) and the GI50 (SN12C) was 20.8 µM (inactive). For the same compound, the GI50 (CCRF-CEM) was 19.3 µM (inactive), the GI50 (OVCAR-4) was 33 µM (inactive) and the GI50 (OVCAR-5) was 28.3 µM (inactive). The GI50 (MOLT-4) was 17.5 µM (inactive), the GI50 (M19-MEL) was 20 µM (inactive) and the GI50 (MCF7) was 26.4 µM (inactive). The GI50 (NCI-H522) was 34.8 µM (inactive), the GI50 (SF-295) was 20.9 µM (inactive) and the GI50 (NCI-H23) was 30.6 µM (inactive). The GI50 (RXF 393) was 38.4 µM (inactive), the GI50 (LOX IMVI) was 22.8 µM (inactive) and the GI50 (HOP-92) was 16.8 µM (inactive). The GI50 (SF-268) was 35.6 µM (inactive), the GI50 (IGROV-1) was 28.6 µM (inactive) and the GI50 (SNB-19) was 45.5 µM (inactive). The GI50 (SK-MEL-2) was 27.7 µM (inactive), the GI50 (OVCAR-3) was 19.1 µM (inactive) and the GI50 (SF-539) was 26.6 µM (inactive). The GI50 (XF498) was 19.3 µM (inactive), the GI50 (NCI-H460) was 21.8 µM (inactive) and the GI50 (NCI/ADR-RES) was 18.5 µM (inactive). For the same compound, the GI50 (OVCAR-8) was 32.4 µM (inactive), the GI50 (EKVX) was 35.6 µM (inactive) and the GI50 (HCT-116) was 14.5 µM (inactive). For the same compound, the GI50 (SK-MEL-28) was 40.2 µM (inactive), the GI50 (K562) was 28.2 µM (inactive) and the GI50 (SK-MEL-5) was 13.1 µM (inactive). For the same compound, the GI50 (Malme-3M) was 24.9 µM (inactive), the GI50 (RPMI-8226) was 19.5 µM (inactive) and the GI50 (SW-620) was 41.1 µM (inactive). The GI50 (NCI-H226) was 28.7 µM (inactive), the GI50 (HCT-15) was 26.2 µM and the GI50 (HT-29) was 13.5 µM (inactive).
